From patent US20180201609A1 (AURIGENE DISCOVERY TECHNOLOGIES LIMITED, priority 2015, published 2018)
Structures can show the parent of a compound that is named as a salt.

Target: T1, IRAK-4 enzyme (Homo sapiens, UniProt Q9NWZ3)
T1 construct: purchased Millipore, USA
T1 sequence (Q9NWZ3 1-460): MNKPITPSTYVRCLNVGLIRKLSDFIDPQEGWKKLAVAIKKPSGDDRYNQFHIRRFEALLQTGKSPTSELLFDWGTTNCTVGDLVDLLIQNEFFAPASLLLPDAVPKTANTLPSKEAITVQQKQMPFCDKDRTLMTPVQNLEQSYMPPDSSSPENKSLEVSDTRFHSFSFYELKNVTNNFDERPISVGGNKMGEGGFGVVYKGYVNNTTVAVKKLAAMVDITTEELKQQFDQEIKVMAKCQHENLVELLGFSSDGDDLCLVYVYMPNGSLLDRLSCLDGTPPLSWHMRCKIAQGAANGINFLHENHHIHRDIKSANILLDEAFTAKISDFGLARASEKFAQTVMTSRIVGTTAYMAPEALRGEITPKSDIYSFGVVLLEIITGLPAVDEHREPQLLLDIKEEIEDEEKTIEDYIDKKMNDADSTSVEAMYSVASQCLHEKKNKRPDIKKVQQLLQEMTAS
Assay: IRAK-4 Biochemical Assay (TR-FRET)
Conditions: recombinant IRAK-4 kinase, 20 μM ATP; for inhibition at 0.1 µM: 0.1 μM compound; for inhibition at 1 µM: 1 μM compound
Experimental: Compounds were tested for their potential to inhibit IRAK-4 enzyme in a TR-FRET assay using recombinant IRAK-4 kinase from Millipore, USA. The assay buffer was 50 mM Tris-HCl pH 7.5, 20 mM MgCl2, 1 mM EGTA, 2 mM DTT, 3 mM MnCl2 and 0.01% Tween 20.5 ng of IRAK-4 kinase was used for the assay. After pre-incubation of enzyme with test compound for 30 minutes at room temperature, a substrate mixture containing 100 nM Biotin Histone H3 (Millipore, USA) and 20 μM ATP (Sigma, USA) was added and the reaction was incubated for 30 min. Post incubation, the reaction was stopped by the addition of stop mix containing 40 mM EDTA, 1 nM of Europium-Anti-Phospho-Histone H3 (Ser10) antibody (Perkin Elmer, USA) and 20 nM SureLight Allophycocyanin-Streptavidin (Perkin Elmer, USA). The fluorescence emission at 615 nm and 665 nm were measured at an excitation of 340 nm and the percent inhibition was estimated from the ratio of the fluorescence intensities [(F665/F615)×10000].
The compounds of the present invention were screened in the above mentioned assay and the percent inhibition data is summarized in the Table 1.

Row | inhibition at 0.1 µM [%] | inhibition at 1 µM [%] | SMILES
1 | 96 | 97 | Cn1cc2cc(NC(=O)c3coc(-c4cccc(N)n4)n3)c(N3CCCCC3)cc2n1 [Example 41, 2-(6-aminopyridin-2-yl)-N-(2-methyl-6-(piperidin-1-yl)-2H-indazol-5-yl)oxazole-4-carboxamide]
2 | 86 | 97 | Cn1cc2cc(NC(=O)c3coc(-c4cccc(N)n4)n3)c(N3CCOCC3)cc2n1 [Example 42, 2-(6-aminopyridin-2-yl)-N-(2-methyl-6-morpholino-2H-indazol-5-yl)oxazole-4-carboxamide]
3 | 97 | 96 | Cn1cc2cc(NC(=O)c3cccc(-c4ccnc(N)c4)n3)c(N3CCCCC3)cc2n1 [Example 43, 2′-amino-N-(2-methyl-6-(piperidin-1-yl)-2H-indazol-5-yl)-[2,4′-bipyridine]-6-carboxamide hydrochloride]
4 | 98 | 97 | Cn1cc2cc(NC(=O)c3cccc(-c4ccc(N)nc4)n3)c(N3CCCCC3)cc2n1 [Example 44, 6′-amino-N-(2-methyl-6-(piperidin-1-yl)-2H-indazol-5-yl)-[2,3′-bipyridine]-6-carboxamide]
5 | 9 | 27 | COc1ccc(C(=O)Nc2cc3cn(C)nc3cc2N2CCCCC2)nc1-c1ccnc(N)c1 [Example 45, 2′-amino-3-methoxy-N-(2-methyl-6-(piperidin-1-yl)-2H-indazol-5-yl)-[2,4′-bipyridine]-6-carboxamide]
6 | 93 | 96 | Cn1cc2cc(NC(=O)c3cccc(-c4cccc(N)n4)n3)c(N3CCCCC3)cc2n1 [Example 46, 6′-amino-N-(2-methyl-6-(piperidin-1-yl)-2H-indazol-5-yl)-[2,2′-bipyridine]-6-carboxamide]
7 | 96 | 97 | Cn1cc2cc(NC(=O)c3cccc(-c4ccc(N)nc4)n3)c(N3CCOCC3)cc2n1 [Example 49, 6′-amino-N-(2-methyl-6-morpholino-2H-indazol-5-yl)-[2,3′-bipyridine]-6-carboxamide]
8 | 86 | 95 | Cn1cc2cc(NC(=O)c3cccc(-c4ccnc(N)c4)n3)c(N3CCOCC3)cc2n1 [Example 50, 2′-amino-N-(2-methyl-6-morpholino-2H-indazol-5-yl)-[2,4′-bipyridine]-6-carboxamide hydrochloride]
9 | 57 | 92 | Cn1cc2cc(NC(=O)c3cccc(-c4cccc(N)n4)n3)c(C3CC3)cc2n1 [Example 51, 6′-amino-N-(6-cyclopropyl-2-methyl-2H-indazol-5-yl)[2,2′-bipyridine]-6-carboxamide hydrochloride]
10 | 0 | 13 | Cn1cc2cc(NC(=O)c3cc(-c4ccc(N)nc4)ccn3)c(N3CCCCC3)cc2n1 [Example 53, 6-amino-N-(2-methyl-6-(piperidin-1-yl)-2H-indazol-5-yl)-[3,4′-bipyridine]-2′-carboxamide hydrochloride]
11 | 96 | 101 | Cn1cc2cc(NC(=O)c3cccc(N4CC[C@@H](O)C4)n3)c(N3CCCCC3)cc2n1 [Example 57, (R)-6-(3-hydroxypyrrolidin-1-yl)-N-(2-methyl-6-(piperidin-1-yl)-2H-indazol-5-yl)picolinamide]

More lines, now with the values behind:

Row | SMILES | inhibition at 0.1 µM [%] | inhibition at 1 µM [%]
12 | Cc1nn(C)c2cc(N3CCC(CO)CC3)c(NC(=O)c3coc(-c4cc(N)ncc4Cl)n3)cc12 [Example 38, 2-(2-amino-5-chloropyridin-4-yl)-N-(6-(4-(hydroxymethyl)piperidin-1-yl)-1,3-dimethyl-1H-indazol-5-yl)oxazole-4-carboxamide hydrochloride] | 50 | 90
13 | Cc1nn(C)c2cc3c(cc12)NC(=O)c1coc(n1)-c1ccnc(c1)NCCCOCC1CCN3CC1 [Example 39, (Z)-51,53-dimethyl-51H-8-oxa-4,12-diaza-2(2,4)-oxazola-5(5,6)-indazola-1(4,2)-pyridina-6(1,4)-piperidinacyclododecaphan-3-one] | 4 | 72
14 | Cn1cc2cc(NC(=O)c3ccc(N4CCC(O)C4)cn3)c(N3CCCCC3)nc2n1 (stereo not drawn) [Example 40, 5-(3-hydroxypyrrolidin-1-yl)-N-(2-methyl-6-(piperidin-1-yl)-2H-pyrazolo[3,4-b]pyridin-5-yl)picolinamide] | 0 | 57
15 | Cn1cc2cc(NC(=O)c3cccc(-c4ccnc(N)n4)n3)c(C3CC3)cc2n1 [Example 47, 6-(2-aminopyrimidin-4-yl)-N-(6-cyclopropyl-2-methyl-2H-indazol-5-yl)picolinamide] | 77 | 95
16 | Cn1cc2cc(NC(=O)c3cccc(-c4ccc(N)nc4)n3)c(C3CC3)cc2n1 [Example 48, 6′-amino-N-(6-cyclopropyl-2-methyl-2H-indazol-5-yl)-[2,3′-bipyridine]-6-carboxamide] | 96 | 98
17 | Cn1cc2cc(NC(=O)c3cccc(-c4ccnc(N)c4)n3)c(C3CC3)cc2n1 [Example 52, 2′-amino-N-(6-cyclopropyl-2-methyl-2H-indazol-5-yl)-[2,4′-bipyridine]-6-carboxamide] | 93 | 96
18 | O=C(Nc1cc2cn(C3CCNCC3)nc2cc1C1CC1)c1cccc(N2CCC(O)C2)n1 (stereo not drawn) [Example 54, N-(6-cyclopropyl-2-(piperidin-4-yl)-2H-indazol-5-yl)-6-(3-hydroxypyrrolidin-1-yl)picolinamide hydrochloride] | 95 | 96
19 | O=C(Nc1cc2cn(CCN3CCOCC3)nc2cc1C1CC1)c1cccc(N2CCC(O)C2)n1 (stereo not drawn) [Example 55, N-(6-cyclopropyl-2-(2-morpholinoethyl)-2H-indazol-5-yl)-6-(3-hydroxypyrrolidin-1-yl)picolinamide] | 92 | 95
20 | CN1CCC(n2cc3cc(NC(=O)c4cccc(N5CCC(O)C5)n4)c(C4CC4)cc3n2)CC1 (stereo not drawn) [Example 56, N-(6-cyclopropyl-2-(1-methylpiperidin-4-yl)-2H-indazol-5-yl)-6-(3-hydroxypyrrolidin-1-yl)picolinamide hydrochloride] | 20 | 71
21 | Cn1cc2cc(NC(=O)c3cccc(N4CC[C@@H](OC(=O)CN)C4)n3)c(N3CCCCC3)cc2n1 [Example 58, (R)-1-(6-((2-methyl-6-(piperidin-1-yl)-2H-indazol-5-yl)carbamoyl)pyridin-2-yl)pyrrolidin-3-yl glycinate 2,2,2-trifluoroacetate] | 91 | 96
22 | Cc1ccc(C(=O)Nc2cc3cn(C)nc3cc2N2CCCCC2)nc1N1CCC(O)C1 (stereo not drawn) [Example 59, 6-(3-hydroxypyrrolidin-1-yl)-5-methyl-N-(2-methyl-6-(piperidin-1-yl)-2H-indazol-5-yl)picolinamide] | 74 | 91
23 | Cc1ccc(C(=O)Nc2cc3cn(C)nc3cc2N2CCCCC2)nc1N1CCC(O)CC1 [Example 60, 6-(4-hydroxypiperidin-1-yl)-5-methyl-N-(2-methyl-6-(piperidin-1-yl)-2H-indazol-5-yl)picolinamide] | 73 | 97
24 | COCCn1cc2cc(NC(=O)c3cccc(N4CCC(O)C4)n3)c(N3CCCCC3)cc2n1 (stereo not drawn) [Example 61, 6-(3-hydroxypyrrolidin-1-yl)-N-(2-(2-methoxyethyl)-6-(piperidin-1-yl)-2H-indazol-5-yl)picolinamide] | 94 | 97
25 | COc1ccc(C(=O)Nc2cc3cn(C)nc3cc2N2CCCCC2)nc1N1CCC(O)C1 (stereo not drawn) [Example 62, 6-(3-hydroxypyrrolidin-1-yl)-5-methoxy-N-(2-methyl-6-(piperidin-1-yl)-2H-indazol-5-yl)picolinamide] | 9 | 21
26 | Cn1cc2cc(NC(=O)c3ccnc(N4CCC(O)C4)n3)c(N3CCCCC3)cc2n1 (stereo not drawn) [Example 63, 2-(3-hydroxypyrrolidin-1-yl)-N-(2-methyl-6-(piperidin-1-yl)-2H-indazol-5-yl)pyrimidine-4-carboxamide] | 79 | 96
27 | O=C(Nc1cc2cn(CCN3CCOCC3)nc2cc1N1CCCCC1)c1cccc(N2CCC(O)C2)n1 (stereo not drawn) [Example 64, 6-(3-hydroxypyrrolidin-1-yl)-N-(2-(2-morpholinoethyl)-6-(piperidin-1-yl)-2H-indazol-5-yl)picolinamide] | 96 | 97
